“And” between values parts separate entries of the source, which are not always exact repeats. Equal values may be shown once.
Key:
[1] = tested on: human pancreatic cancerous cell lines (PANC-1); assay: Anti-proliferative MTT assay, PANC-1; format: cell-based; conditions: 48 h
Protocol: (§1) These RTKs play critical roles in the proliferation of various cancers. Therefore, RTKs inhibition generally translate well into anti-proliferation activity.
(§2) Exponentially growing cells were harvested and plated in 96-well plates at a concentration of 1×10^4 cells/well per well, and then were incubated at 37°C for 24 h. […] Subsequently, 22 μL fresh MTT (5 mg/mL) was added to each well and incubated at 37°C for 4 h. […] DMSO was added to each well after supernatant was discarded. Absorbance values were determined by a microplate reader (Bio-Rad Instruments) at 490 nm. The IC50 values were calculated according to inhibition ratios.

c-Kit = c-Kit (Homo sapiens, UniProt P10721); assay: Kinase-Glo Plus RTK selectivity assay, c-Kit; format: biochemical; conditions: 10 μM ATP
Protocol: (§3) A 50 μL reaction mixture contains 40 mM Tris, pH 7.4, 10 mM MgCl2, 0.1 mg/ml BSA, 1 mM DTT, 10 μM ATP, kinase and substrate (0.2 mg/mL Poly(Glu, Tyr)/10 μM ATP). The test compounds were diluted in 10% DMSO and 5 μL of the dilution was added to a 50 μL reaction so that the final concentration of DMSO is 1% in all of reactions. The assay was performed using Kinase-Glo Plus luminescence kinase assay kit. It measures kinase activity by quantitating the amount of ATP remaining in solution following a kinase reaction. The luminescent signal from the assay is correlated with the amount of ATP present and is inversely correlated with the amount of kinase activity. The IC50 values were calculated using nonlinear regression with normalized dose−response fit using Prism GraphPad software.

EA.hy926 cells = assay: Apoptosis detection assay (annexin V-FITC/PI flow cytometry); format: cell-based, human; conditions: 48 h, negative control 10.35%
Protocol: A substantial and dose-dependent proapoptotic activity in HECs at various concentrations for 48 h was observed. The apoptotic EA.hy926 cells (10.35%) of negative control group were depicted in Figure 3A.
The cells were then harvested by trypsinization and washed twice with cold PBS. After centrifugation and removal of the supernatants, EA.hy926 cells were re-suspended in 400 μL of 1×binding buffer which was then added to 5 μL of annexin V-FITC and incubated at room temperature for 15 min. After adding 10 μL of PI the cells were incubated at room temperature for another 15 min in the dark. The stained cells were analyzed by a flow cytometer (BD Accuri C6).

TIE-2 = TIE-2 (Homo sapiens, UniProt Q02763); assay: ADP-Glo in vitro RTK inhibition assay, TIE-2; format: biochemical; conditions: ATP 50 μM
Protocol: (§4) In order to validate the direct effect of title compounds on VEGFR-2, Tie-2, and EphB4 kinases, we performed in vitro assay using the ADP-Glo Kinase Assay Kit (Promega, Wisconsin, USA).
(§5) The kinase assay was performed in a reaction mixture of final volume of 10 μL. […] The plate was incubated at 30°C for 1 h. After the plate was cooled at room temperature for 5 min, 5 μL of ADP-Glo reagent was added into each well to stop the reaction and consume the remaining […] within 40 min. At the end, 10 μL of kinase detection reagent was added into the well and incubated for 30 min to produce a luminescence signal. […] The assay plate was incubated at 30°C for 4 h. After the plate was cooled at room temperature for 5 min, 5 μL of ADP-Glo reagent was added into each well to stop the reaction and consume the remaining […] within 1 h. At the end, 10 μL of kinase detection reagent was added into each well and incubated for 30 min to produce a luminescence signal. The luminescence was read by VICTOR-X multi-label plate reader.

VEGFR-2 [2] = molecular target: T1, VEGFR-2 (Homo sapiens, UniProt P35968); assay: ADP-Glo in vitro RTK inhibition assay, VEGFR-2; format: biochemical; conditions: ATP 50 μM
Protocol: as §4, §5

[3] = tested on: human colon carcinoma cell line (LOVO); assay: Anti-proliferative MTT assay, LOVO; format: cell-based; conditions: 48 h
Protocol: as §1, §2

[4] = tested on: human hepatic cancer cell lines (7721); assay: Anti-proliferative MTT assay, 7721; format: cell-based; conditions: 48 h
Protocol: as §1, §2

FGFR-4 = FGFR-4 (Homo sapiens, UniProt P22455); assay: Kinase-Glo Plus RTK selectivity assay, FGFR-4; format: biochemical; conditions: 10 μM ATP
Protocol: as §3

VEGFR-2 [5] = molecular target: T1, VEGFR-2; assay: VEGFR-2/cell membrane chromatography (CMC) affinity evaluation; format: binding
Protocol: In previous studies, artificial cultures highly expressing VEGFR-2 on HEK293 cell lines were constructed. […] Chromatographic conditions: 10 mm×2.0 mm; flow rate0.6 mL/min; column temperature 37°C; mobile phase 5 mM PBS, pH 7.4; detection wavelength 270 nm.
The VEGFR-2 cell membrane stationary phase was prepared as previous reported. Aqueous ammonium acetate buffer solution (pH 7.4, 5 mM) was pumped at a flow rate of 0.2 mL/min as the mobile phase after VEGFR-2/CMC column was loaded onto the chromatography system at the temperature of 37°C. […] The mobile phase was 5.0 mM phosphate burred saline with a 0.6 mL/min flow rate at a column temperature of 37°C. The detected wavelength was 270 nm. The test compound was injected into the VEGFR-2/CMC column and their retention characteristics were identified to evaluate their affinity with VEGFR-2.

[6] = tested on: human breast cancer cell lines (MCF-7); assay: Anti-proliferative MTT assay, MCF-7; format: cell-based; conditions: MCF7, 48 h
Protocol: as §1, §2

[7] = tested on: normal human liver cells (QSG7701); assay: Cytotoxicity on normal cells, QSG7701; format: cell-based; conditions: MTT, 48 h, read-out: Anti-proliferative activity IC50, QSG7701 (normal cells)
Protocol: In order to determine the anti-angiogenic effect of these multi-target inhibitors, we evaluated their effect on HECs (EA.hy926) viability using cell counting kit-8 (CCK-8) method.
as §1, §2

EGFR = EGFR (Homo sapiens, UniProt P00533); assay: Kinase-Glo Plus RTK selectivity assay, EGFR; format: biochemical; conditions: 10 μM ATP
Protocol: as §3

MCF-7 xenograft = assay: In vivo MCF-7 xenograft mice model; conditions: ig; for Final body weight / Tumor growth inhibition / Final tumor weight: 21 days; for Final tumor weight: control 0.848±0.5; for Initial body weight: before treatment
Protocol: Six-week old female BALB/c mice were purchased from Shanghai Laboratory Animal center of the Chinese Academy of Sciences and housed under aseptic and ventilated condition. The mice were inoculated by subcutaneous injection with MCF-7 cancer cells suspended in 5% saline. Tumor volume and weight were measured on alternate days. Body weights were monitored as an indicator of toxicity. […] Treatment started from the next day and continued for 21 days. All mice were killed at the end of the experiment, and subcutaneous tumors were removed and weighted.

[8] = tested on: human epidermoid carcinoma cell line (A431); assay: Anti-proliferative MTT assay, A431; format: cell-based; conditions: A-431, 48 h
Protocol: as §1, §2

[9] = tested on: human lung cancer cell (A549); assay: Anti-proliferative MTT assay, A549; format: cell-based; conditions: 48 h
Protocol: as §1, §2

T1 sequence (P35968 20-1356): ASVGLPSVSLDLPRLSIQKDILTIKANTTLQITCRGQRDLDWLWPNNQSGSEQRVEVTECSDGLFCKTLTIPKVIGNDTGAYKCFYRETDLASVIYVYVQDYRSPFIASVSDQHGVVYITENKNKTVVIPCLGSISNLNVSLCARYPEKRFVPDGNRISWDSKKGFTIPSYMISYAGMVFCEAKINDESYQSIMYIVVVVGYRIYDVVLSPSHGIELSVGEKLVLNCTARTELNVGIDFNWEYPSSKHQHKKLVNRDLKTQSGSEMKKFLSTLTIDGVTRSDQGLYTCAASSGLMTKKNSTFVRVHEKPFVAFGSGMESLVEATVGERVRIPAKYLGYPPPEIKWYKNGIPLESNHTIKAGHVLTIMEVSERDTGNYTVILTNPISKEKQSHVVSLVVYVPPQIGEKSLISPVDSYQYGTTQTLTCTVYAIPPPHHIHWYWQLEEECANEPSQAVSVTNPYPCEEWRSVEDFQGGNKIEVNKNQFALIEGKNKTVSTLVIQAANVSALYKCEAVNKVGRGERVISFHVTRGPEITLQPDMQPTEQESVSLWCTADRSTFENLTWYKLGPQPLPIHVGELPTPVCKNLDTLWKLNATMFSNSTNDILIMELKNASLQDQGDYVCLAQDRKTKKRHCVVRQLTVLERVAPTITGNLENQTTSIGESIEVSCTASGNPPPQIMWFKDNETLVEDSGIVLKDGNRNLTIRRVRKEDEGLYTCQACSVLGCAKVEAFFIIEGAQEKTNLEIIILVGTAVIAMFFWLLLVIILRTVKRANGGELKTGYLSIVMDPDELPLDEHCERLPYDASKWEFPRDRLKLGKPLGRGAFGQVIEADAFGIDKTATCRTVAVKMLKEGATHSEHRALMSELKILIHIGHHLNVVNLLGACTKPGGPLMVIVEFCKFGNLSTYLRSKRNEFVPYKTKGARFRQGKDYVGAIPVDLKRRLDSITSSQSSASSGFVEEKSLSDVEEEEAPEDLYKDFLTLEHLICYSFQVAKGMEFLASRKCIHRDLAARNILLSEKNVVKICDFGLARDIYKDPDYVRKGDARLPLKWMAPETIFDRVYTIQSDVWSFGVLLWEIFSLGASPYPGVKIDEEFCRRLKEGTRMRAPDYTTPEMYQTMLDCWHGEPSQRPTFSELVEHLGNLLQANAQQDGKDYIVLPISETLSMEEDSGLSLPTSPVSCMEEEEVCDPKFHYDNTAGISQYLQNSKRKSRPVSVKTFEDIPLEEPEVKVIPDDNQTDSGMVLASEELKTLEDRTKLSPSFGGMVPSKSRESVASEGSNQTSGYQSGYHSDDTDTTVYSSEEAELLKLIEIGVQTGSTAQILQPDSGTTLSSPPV
c-Kit, sequence (P10721 26-976): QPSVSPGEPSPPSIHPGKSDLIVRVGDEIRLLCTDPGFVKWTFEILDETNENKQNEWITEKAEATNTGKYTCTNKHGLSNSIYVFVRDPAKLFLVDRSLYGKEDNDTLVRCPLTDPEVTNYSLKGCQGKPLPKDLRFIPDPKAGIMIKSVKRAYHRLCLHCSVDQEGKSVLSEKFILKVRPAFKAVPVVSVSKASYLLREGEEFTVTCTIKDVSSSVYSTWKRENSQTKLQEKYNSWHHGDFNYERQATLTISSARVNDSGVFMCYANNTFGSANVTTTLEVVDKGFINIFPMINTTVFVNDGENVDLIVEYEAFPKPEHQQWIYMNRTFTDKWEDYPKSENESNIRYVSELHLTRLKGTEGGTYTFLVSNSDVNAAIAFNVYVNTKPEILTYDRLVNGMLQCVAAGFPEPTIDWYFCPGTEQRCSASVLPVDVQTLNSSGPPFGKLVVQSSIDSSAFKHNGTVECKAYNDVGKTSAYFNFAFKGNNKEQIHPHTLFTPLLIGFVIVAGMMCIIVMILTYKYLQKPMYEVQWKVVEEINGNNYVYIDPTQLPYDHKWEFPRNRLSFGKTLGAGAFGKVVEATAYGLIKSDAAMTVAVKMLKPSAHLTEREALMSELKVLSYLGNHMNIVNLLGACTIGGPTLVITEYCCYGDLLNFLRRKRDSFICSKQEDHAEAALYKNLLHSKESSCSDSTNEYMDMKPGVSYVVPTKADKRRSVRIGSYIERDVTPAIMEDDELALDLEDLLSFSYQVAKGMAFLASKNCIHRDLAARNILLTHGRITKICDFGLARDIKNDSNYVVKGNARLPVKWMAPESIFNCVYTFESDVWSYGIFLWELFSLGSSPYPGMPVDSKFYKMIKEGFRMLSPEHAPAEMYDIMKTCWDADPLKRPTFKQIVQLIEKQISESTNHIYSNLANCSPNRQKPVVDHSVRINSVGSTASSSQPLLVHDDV
TIE-2, sequence (Q02763 23-1124): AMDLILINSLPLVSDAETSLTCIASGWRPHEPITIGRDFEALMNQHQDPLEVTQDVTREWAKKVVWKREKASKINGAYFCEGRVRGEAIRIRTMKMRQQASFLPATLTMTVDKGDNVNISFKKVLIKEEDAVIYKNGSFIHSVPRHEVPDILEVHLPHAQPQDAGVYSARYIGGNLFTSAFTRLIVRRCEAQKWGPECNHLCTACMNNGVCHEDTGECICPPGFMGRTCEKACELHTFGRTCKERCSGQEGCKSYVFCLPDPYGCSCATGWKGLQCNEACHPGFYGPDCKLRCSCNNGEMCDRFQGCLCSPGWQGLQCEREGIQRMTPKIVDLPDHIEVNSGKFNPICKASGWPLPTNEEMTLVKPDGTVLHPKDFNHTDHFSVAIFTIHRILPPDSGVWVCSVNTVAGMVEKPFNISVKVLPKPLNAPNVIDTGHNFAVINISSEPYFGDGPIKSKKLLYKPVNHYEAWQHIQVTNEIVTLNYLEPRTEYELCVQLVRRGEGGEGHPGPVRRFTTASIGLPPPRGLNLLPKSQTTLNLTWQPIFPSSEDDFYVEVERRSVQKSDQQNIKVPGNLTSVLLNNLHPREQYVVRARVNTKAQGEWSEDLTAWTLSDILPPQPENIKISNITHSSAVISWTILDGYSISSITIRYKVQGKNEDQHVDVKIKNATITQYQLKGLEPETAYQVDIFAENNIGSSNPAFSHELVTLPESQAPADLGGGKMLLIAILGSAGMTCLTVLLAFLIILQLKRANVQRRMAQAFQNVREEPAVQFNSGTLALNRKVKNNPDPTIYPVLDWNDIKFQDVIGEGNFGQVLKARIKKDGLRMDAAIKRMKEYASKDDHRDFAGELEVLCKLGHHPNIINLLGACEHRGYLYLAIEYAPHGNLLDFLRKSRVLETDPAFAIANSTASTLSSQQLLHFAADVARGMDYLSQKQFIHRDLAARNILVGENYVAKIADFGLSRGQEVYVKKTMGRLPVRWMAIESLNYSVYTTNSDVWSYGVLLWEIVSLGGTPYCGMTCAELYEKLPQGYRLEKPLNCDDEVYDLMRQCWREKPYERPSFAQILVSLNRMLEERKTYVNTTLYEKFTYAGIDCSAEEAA
EGFR, sequence (P00533 25-1210, species assumed): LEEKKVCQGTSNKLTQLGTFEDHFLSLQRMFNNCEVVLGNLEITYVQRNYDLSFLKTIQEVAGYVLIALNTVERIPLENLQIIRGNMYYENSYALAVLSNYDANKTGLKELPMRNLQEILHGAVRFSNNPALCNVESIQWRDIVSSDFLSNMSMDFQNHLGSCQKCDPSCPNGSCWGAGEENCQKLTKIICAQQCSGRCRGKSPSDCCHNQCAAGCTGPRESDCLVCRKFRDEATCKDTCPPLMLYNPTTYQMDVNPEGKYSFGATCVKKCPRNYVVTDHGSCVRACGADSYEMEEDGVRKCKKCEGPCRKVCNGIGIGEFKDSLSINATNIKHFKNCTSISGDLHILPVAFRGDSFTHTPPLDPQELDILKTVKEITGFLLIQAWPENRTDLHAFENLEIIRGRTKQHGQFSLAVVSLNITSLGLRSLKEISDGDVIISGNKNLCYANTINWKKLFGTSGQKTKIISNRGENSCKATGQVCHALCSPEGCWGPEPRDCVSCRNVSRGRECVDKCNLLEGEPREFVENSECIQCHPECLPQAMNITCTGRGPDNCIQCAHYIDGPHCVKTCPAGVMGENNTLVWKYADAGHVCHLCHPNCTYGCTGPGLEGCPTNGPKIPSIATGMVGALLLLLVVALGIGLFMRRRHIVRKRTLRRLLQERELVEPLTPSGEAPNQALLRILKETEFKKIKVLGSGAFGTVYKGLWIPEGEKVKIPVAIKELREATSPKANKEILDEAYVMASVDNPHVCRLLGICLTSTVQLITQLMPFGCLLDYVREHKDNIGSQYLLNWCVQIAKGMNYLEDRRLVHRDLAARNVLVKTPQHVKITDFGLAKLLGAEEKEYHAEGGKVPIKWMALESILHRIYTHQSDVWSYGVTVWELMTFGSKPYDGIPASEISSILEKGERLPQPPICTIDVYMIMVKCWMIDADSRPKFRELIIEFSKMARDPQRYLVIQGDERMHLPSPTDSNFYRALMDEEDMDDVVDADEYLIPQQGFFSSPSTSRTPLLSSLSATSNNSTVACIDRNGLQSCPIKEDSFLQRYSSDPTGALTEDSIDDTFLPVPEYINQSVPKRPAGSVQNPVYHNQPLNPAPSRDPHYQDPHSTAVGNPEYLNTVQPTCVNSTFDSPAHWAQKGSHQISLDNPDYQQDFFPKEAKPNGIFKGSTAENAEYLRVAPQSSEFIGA

IC50 [1]: 24.9 µM
IC50 (c-Kit): 0.142 µM
IC50 (TIE-2): 0.00887 µM
IC50 (VEGFR-2 [2]): 0.00077 µM
IC50 [3]: 4.99 µM
IC50 [4]: 58.7 µM
IC50 (FGFR-4): > 0.5 µM
Direct competitive assay on VEGFR-2/CMC (change in K' of multi-target RTK inhibitors) (VEGFR-2 [5]; QDAU5 at increasing concentrations in the mobile phase): interacted with the same site of VEGFR-2
Retention time on VEGFR-2/cell membrane stationary phase column (VEGFR-2 [5]; flow rate 0.6 mL/min, 37°C, 5 mM PBS pH 7.4, 270 nm): 38 min and 38.0 min
IC50 [6]: 2.12 µM
IC50 (EGFR): 0.0988 µM
IC50 [8]: 16.9 µM
IC50 [9]: 8.37 µM
Compound: O=C(Nc1ccc(-c2ccc3c(=O)[nH]cnc3c2)cc1)Nc1ccc(F)c(F)c1 [QDAU5, 1-(3,4-difluorophenyl)-3-(4-(4-oxo-3,4-dihydroquinazolin-7-yl)phenyl)urea]
percentage of early apoptotic cells (EA.hy926 cells; EA.hy926, 5 nM): 19.55%
percentage of early apoptotic cells (EA.hy926 cells; EA.hy926, 20 nM): 28.35%
percentage of early apoptotic cells (EA.hy926 cells; EA.hy926, 40 nM): 31.43%
IC50 [7]: > 100 µM
Final body weight (MCF-7 xenograft; 20 mg/kg daily): 17.4 ± 1.0 g
Tumor growth inhibition (MCF-7 xenograft; 20 mg/kg daily): 7.2%
Final tumor weight (MCF-7 xenograft; 20 mg/kg daily): 0.787 ± 0.7 g
Initial body weight (MCF-7 xenograft; 20 mg/kg): 18.7 ± 0.8 g
Final body weight (MCF-7 xenograft; 40 mg/kg daily): 18.9 ± 1.2 g
Tumor growth inhibition (MCF-7 xenograft; 40 mg/kg daily, 40 mg/kg): 24%
Final tumor weight (MCF-7 xenograft; 40 mg/kg daily): 0.642 ± 0.8 g
Initial body weight (MCF-7 xenograft; 40 mg/kg): 18.4 ± 0.6 g
Final body weight (MCF-7 xenograft; 80 mg/kg daily): 16.1 ± 1.0 g
Tumor growth inhibition (MCF-7 xenograft; 80 mg/kg daily, 80 mg/kg): 47%
Final tumor weight (MCF-7 xenograft; 80 mg/kg daily): 0.449 ± 0.9 g
Initial body weight (MCF-7 xenograft; 80 mg/kg): 18.3 ± 0.7 g

Reference: publication PMC5739597, “Discovery and evaluation of triple inhibitors of VEGFR-2, TIE-2 and EphB4 as anti-angiogenic and anti-cancer agents” (Oncotarget, 2017)
